Here are results for seven compounds from patent publication US20030175745A1, “Peptides with growth inhibitory action” (priority 2001, published 2003).

Where a SMILES comes first, the peptide text is derived from it.

In one test the test system is NIH3T3-PDGF-ββ cells. In words: Growth assay with NIH3T3-PDGF-ββ cells, cell number by PicoGreen DNA. Conditions: for inhibition compared to the base medium (BITS): Example 4 (Table 2); for % of control cell growth: 5 days, BITS medium. Type of test: cell-based. The procedure: NIH 3T3 cells transfected with PDGF-ββ (a stable cell line) were obtained from Mount Sinai School of Medicine. These cells overexpress PDGF-ββ and are activated via the PDGF-R in an autocrine fashion. Cells were grown at 37° C. in Dulbecco's Modified Eagles Medium (high glucose) (DMEM) with 10% heat-inactivated fetal calf serum (FCS) with 100 units or μg/ml penicillin/streptomycin with 750 μg/ml G418 sulfate (Geneticin) selection. Cells were incubated in an atmosphere of 5% CO2, and cultures were fed twice weekly. For subcultivation, cells were allowed to attain confluence and washed twice with PBS or Hank's balanced salt solution (minus Ca^++ and Mg^++) before addition of a trypsin/EDTA solution to dislodge the cells. Cells were split anywhere from ¼ to 1/12 into a sterile T-75 Flask depending on the time desired until confluence.
To identify peptides that inhibit cell growth in culture, candidate peptides were screened in a growth assay with NIH3T3-PDGF-ββ cells. Cells were expanded in DMEM containing G418 as described above. […] Growth medium was removed and the peptide solution added (250 μl/well). Cells were incubated for 5 days without feeding prior to testing. After this time, growth of cells treated with each peptide was compared to growth in control medium (no peptide added).
Cell number was assessed by measurement of total cellular double-stranded DNA using the PicoGreen Assay Kit (Molecular Probes, Eugene, Oreg., USA, lot #6405-1). For PicoGreen analysis, cell lysates (100 μl ) were added to 100 µl of the dye solution prepared by diluting the PicoGreen dye (1:200 in 1× TE according to the manufacturer's instructions). Plates were read after five minutes in a fluorimeter (irradiated at an excitation wavelength of 485 nm). Fluorescence emission was measured at 530 nm using a CytoFluor Series 4000 (PerSeptive Biosystems, Framingham, Mass.). For correlating DNA level to cell number, a standard curve was established for the NIH3T3-PDGF-ββ cells. For analysis, DNA absorbance/emission was compared to the absorbance/emission shown by a standard curve of DNA.

The subject of the next test is PDGF-R. Conditions: in the μM range; cited from earlier work.
The target in a further test is PDGF β receptor (Homo sapiens, UniProt P09619). Conditions: cited from earlier work.
PDGF β receptor, sequence (P09619 33-1106): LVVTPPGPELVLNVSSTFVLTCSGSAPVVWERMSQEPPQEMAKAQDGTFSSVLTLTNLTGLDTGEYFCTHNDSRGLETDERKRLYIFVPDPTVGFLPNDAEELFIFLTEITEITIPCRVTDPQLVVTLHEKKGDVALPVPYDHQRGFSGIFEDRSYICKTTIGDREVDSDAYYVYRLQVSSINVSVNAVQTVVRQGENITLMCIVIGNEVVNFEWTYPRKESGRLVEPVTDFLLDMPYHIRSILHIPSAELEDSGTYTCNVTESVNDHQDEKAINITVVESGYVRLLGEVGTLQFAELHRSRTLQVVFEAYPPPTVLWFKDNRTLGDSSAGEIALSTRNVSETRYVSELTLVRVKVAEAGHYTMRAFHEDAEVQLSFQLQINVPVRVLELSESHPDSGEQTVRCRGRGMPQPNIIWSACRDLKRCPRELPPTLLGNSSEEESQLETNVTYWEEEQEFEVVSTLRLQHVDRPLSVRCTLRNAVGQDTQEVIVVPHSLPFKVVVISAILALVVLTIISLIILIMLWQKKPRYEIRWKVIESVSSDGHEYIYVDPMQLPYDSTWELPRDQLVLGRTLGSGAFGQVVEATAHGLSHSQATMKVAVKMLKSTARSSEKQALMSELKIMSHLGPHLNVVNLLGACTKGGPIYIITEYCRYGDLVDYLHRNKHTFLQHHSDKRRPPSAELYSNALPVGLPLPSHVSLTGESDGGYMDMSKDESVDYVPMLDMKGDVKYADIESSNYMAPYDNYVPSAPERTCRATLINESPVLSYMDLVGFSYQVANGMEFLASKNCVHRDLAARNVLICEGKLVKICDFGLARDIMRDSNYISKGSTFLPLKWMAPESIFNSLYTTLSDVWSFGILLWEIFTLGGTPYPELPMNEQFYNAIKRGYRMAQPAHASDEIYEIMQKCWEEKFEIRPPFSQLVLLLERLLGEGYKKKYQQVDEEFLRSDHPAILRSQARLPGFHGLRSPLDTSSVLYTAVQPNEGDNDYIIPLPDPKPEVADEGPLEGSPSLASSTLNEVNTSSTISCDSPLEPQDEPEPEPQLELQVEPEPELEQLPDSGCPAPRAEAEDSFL
For another test, the target named is α-type PDGF-R (Homo sapiens, UniProt P16234). Conditions: high concentrations; cited from earlier work.
α-type PDGF-R, sequence (P16234 24-1089): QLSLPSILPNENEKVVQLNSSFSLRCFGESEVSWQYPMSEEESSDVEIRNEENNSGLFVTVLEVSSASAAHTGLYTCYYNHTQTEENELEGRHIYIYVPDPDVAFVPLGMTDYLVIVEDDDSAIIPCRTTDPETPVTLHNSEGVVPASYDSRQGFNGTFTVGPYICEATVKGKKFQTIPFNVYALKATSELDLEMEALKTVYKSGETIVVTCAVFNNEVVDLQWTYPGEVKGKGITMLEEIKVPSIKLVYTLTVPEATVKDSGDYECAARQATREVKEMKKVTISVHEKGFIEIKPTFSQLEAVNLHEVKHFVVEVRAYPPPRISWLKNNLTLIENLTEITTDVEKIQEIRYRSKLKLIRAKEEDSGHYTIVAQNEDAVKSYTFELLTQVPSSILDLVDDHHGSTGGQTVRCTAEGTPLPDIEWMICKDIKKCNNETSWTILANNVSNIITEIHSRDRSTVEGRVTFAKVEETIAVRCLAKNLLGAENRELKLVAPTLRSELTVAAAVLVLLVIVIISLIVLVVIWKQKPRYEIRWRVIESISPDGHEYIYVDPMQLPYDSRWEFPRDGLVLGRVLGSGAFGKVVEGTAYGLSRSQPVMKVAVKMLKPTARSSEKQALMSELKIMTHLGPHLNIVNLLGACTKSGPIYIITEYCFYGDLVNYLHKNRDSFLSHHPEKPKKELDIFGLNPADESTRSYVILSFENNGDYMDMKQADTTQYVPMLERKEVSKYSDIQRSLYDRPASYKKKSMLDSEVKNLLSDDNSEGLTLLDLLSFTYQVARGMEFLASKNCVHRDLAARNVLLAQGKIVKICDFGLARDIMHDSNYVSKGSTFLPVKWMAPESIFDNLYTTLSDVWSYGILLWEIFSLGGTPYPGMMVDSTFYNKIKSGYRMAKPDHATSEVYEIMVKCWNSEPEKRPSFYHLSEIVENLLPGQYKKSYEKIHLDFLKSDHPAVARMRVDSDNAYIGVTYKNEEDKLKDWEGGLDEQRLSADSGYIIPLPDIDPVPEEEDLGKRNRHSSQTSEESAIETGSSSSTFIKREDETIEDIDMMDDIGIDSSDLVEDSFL

Take `NCCCC[C@H](NC(=O)[C@H](CCCCN)NC(=O)[C@H](CCCCN)NC(=O)[C@@H](N)CCCCN)C(=O)O` [KKKK] (H-KKKK-OH): the “inhibition of cell growth compared to control medium (BITS)” value with NIH3T3-PDGF-ββ cells (Example 3, KKKK (Bachem) 3 mM) is recorded as 21%; in the test with NIH3T3-PDGF-ββ cells (Example 3, KKKK (Bachem) 6 mM), 36%. Besides, the “inhibition compared to the base medium (BITS)” value came to 59% in the test on NIH3T3-PDGF-ββ cells (6 mM peptide) and 82% in the test on NIH3T3-PDGF-ββ cells (12 mM peptide). The “% of control cell growth” value is reported as 78% with NIH3T3-PDGF-ββ cells (Table 1, KKKK (Bachem) 3 mM); 65% in the test with NIH3T3-PDGF-ββ cells (Table 1, KKKK (Bachem) 6 mM); 39% in the test with NIH3T3-PDGF-ββ cells (Table 1, KKKK (Bachem) 12 mM); 105% in the test on NIH3T3-PDGF-ββ cells (Table 2, 1 mM peptide); 72% in the test on NIH3T3-PDGF-ββ cells (Table 2, 3 mM peptide); 41% in the test on NIH3T3-PDGF-ββ cells (Table 2, 6 mM peptide). Besides, in the test on NIH3T3-PDGF-ββ cells (Table 2, 12 mM peptide), the “% of control cell growth” value was 17%.
For the compound `Cc1ccc(C(=O)Nc2ccc(S(=O)(=O)O)c3cc(S(=O)(=O)O)cc(S(=O)(=O)O)c23)cc1NC(=O)c1cccc(NC(=O)Nc2cccc(C(=O)Nc3cc(C(=O)Nc4ccc(S(=O)(=O)O)c5cc(S(=O)(=O)O)cc(S(=O)(=O)O)c45)ccc3C)c2)c1` [suramin], in the test on PDGF-R, the “inhibition of PDGF binding to PDGF R” value was 100%.
“DDEEK (printed: ASP ASP GLU GLU LYS) [pentapeptide ASP ASP GLU GLU LYS, from Bachem]”: in the test on NIH3T3-PDGF-ββ cells, the “growth inhibition in the initial screen of the library” value (“growth inhibition” for short) was “inhibiting growth”. The “relative potency in inhibiting cell growth” value with NIH3T3-PDGF-ββ cells (6 mM) is listed as “most potent inhibitor”. For the same compound, the “inhibition compared to the base medium (BITS)” value was 91% in the test with NIH3T3-PDGF-ββ cells (6 mM peptide) and 84% in the test with NIH3T3-PDGF-ββ cells (12 mM peptide). For the same compound, the “% of control cell growth” value in the test with NIH3T3-PDGF-ββ cells (Table 2, 1 mM peptide) was determined as 108%; in the test on NIH3T3-PDGF-ββ cells (Table 2, 3 mM peptide), 93%; in the test on NIH3T3-PDGF-ββ cells (Table 2, 6 mM peptide), 11%; in the test with NIH3T3-PDGF-ββ cells (Table 2, 12 mM peptide), 16%.
Take “FFFKK (printed: PHE PHE PHE LYS LYS) [pentapeptide PHE PHE PHE LYS LYS, from Bachem]”: the “growth inhibition” value with NIH3T3-PDGF-ββ cells is listed as “inhibiting growth”. For the same compound, the “inhibition compared to the base medium (BITS)” value in the test on NIH3T3-PDGF-ββ cells (6 mM peptide) stood at 29%; in the test on NIH3T3-PDGF-ββ cells (12 mM peptide), 82%. The “% of control cell growth” value is on record as 111% in the test on NIH3T3-PDGF-ββ cells (Table 2, 1 mM peptide); 103% in the test with NIH3T3-PDGF-ββ cells (Table 2, 3 mM peptide); 69% with NIH3T3-PDGF-ββ cells (Table 2, 6 mM peptide); 18% with NIH3T3-PDGF-ββ cells (Table 2, 12 mM peptide).
Turning to “FFHPV (printed: PHE PHE HIS PRO VAL) [pentapeptide PHE PHE HIS PRO VAL, from Bachem]”, the “growth inhibition” value in the test with NIH3T3-PDGF-ββ cells is “inhibiting growth”. Further, the “inhibition compared to the base medium (BITS)” value in the test with NIH3T3-PDGF-ββ cells (6 mM peptide) stood at 14%; in the test with NIH3T3-PDGF-ββ cells (9.5 mM peptide) it was 82%. Further, the “% of control cell growth” value is reported as 116% in the test on NIH3T3-PDGF-ββ cells (Table 2, 1 mM peptide); 111% in the test with NIH3T3-PDGF-ββ cells (Table 2, 3 mM peptide); 85% in the test with NIH3T3-PDGF-ββ cells (Table 2, 6 mM peptide); 16% in the test on NIH3T3-PDGF-ββ cells (Table 2, 9.5 mM peptide).
As to “KLMSY (printed: LYS LEU MET SER TYR) [pentapeptide LYS LEU MET SER TYR, from Bachem]”, the “growth inhibition” value in the test with NIH3T3-PDGF-ββ cells is on record as “inhibiting growth”. The “inhibition compared to the base medium (BITS)” value with NIH3T3-PDGF-ββ cells (6 mM peptide) amounted to 23%; in the test with NIH3T3-PDGF-ββ cells (12 mM peptide), 91%. Moreover, the “% of control cell growth” value in the test with NIH3T3-PDGF-ββ cells (Table 2, 1 mM peptide) is on record as 127%; in the test on NIH3T3-PDGF-ββ cells (Table 2, 3 mM peptide), 126%; with NIH3T3-PDGF-ββ cells (Table 2, 6 mM peptide), 76%; with NIH3T3-PDGF-ββ cells (Table 2, 12 mM peptide), 10%.
In the case of neomycin, the “inhibition of binding to the PDGF β receptor” value on PDGF β receptor is on record as “not able to inhibit”. On α-type PDGF-R, the “inhibition of binding of PDGF-ββ to the α-type PDGF-R” value is listed as “inhibited”.
